Test results from patent EP1270568A1, “1-methyl-4-(3-ethoxy-9h-thioxanthene-ylidene)-piperidine and its use as 5-HT2B and/or H1 antagonist” (Biofrontera Pharmaceuticals AG, priority 2001, dated 2003).

What was measured:
human H1 receptor [1] = biological target: T1, human H1 receptor (Homo sapiens, UniProt P35367); assay: Human histamine H1 receptor functional assay ([3H]-inositol phosphate formation); format: cell-based; set-up: expressed in transfected cells; conditions: transiently transfected HEK-293 cells, histamine-stimulated [3H]-inositol phosphate formation; result in words only
Procedure: For the measurement of the [^3H]-inositol phosphate formation transiently transfected HEK-293 cells were seeded in 24 well plates and labeled to equilibrium with myo-[2-^3H]-inositol (3 ìCi/ml) for an additional 24 hours in growth medium. The medium was aspirated and cells were washed once with 500 µl HBS-buffer (130 mM NaCl, 900 µM NaH2PO4, 800 µM MgSO4, 5.4 mM KCl, 1.8 mM CaCl2, 25 mM Glucose in 20 mM HEPES pH 7.4). Two min after applying 20 mM Li^+ the cells were stimulated by addition of histamine in HBS-buffer. The incubation was stopped by aspiration off the culture medium and the addition of cold 10 mM formic acid. [^3H]inositol phosphates were isolated by anion exchange chromatography (see Seuwen et al., 1988, EMBO J., 7, 161-168). The pKB value was calculated according to the formula: pKB = log (A'/A - 1) - log [B], where A'/A is the ratio of the agonist concentrations (EC50 in the presence / EC50 in the absence of antagonist) and [B] the concentration of antagonist.

human H1 receptor [2] = biological target: T1, human H1 receptor; assay: Cloned human H1, H2, H3 (and H4) receptor binding assay ([3H]-mepyramine for H1); set-up: expressed in transfected cells; host or cells: COS-7 cells, transiently transfected; cell homogenates; conditions: COS-7 cell homogenates, 1 nM [3H]-mepyramine, 30 min at 25°C; result in words only
Procedure: COS-7 cells were transiently transfected with an expression plasmid pCineohH1, pCineohH2, pCineohH3 and pCineohH4 encoding the human Histamine H1, H2 H3 or H4 receptor, respectively. Transfected cells were harvested after 48 h, homogenized in ice-cold 50 mM Na2/potassium phosphate buffer (pH 7.4) and used for radioligand binding studies. Cell homogenates (40 - 50 µg of protein) were incubated for 30 min at 25°C in 50 mM Na2/potassium phosphate buffer (pH 7.4) in 400 µl with the various concentrations of either [^3H]-mepyramine, [^3H]-thiotidine, [^3H]-R-α-Methylhistamine, and [^3H]-pyramilamine for cells expressing recombinant human H1, H2, H3 and H4 receptors, respectively. The nonspecific binding was defined in the presence of 1 µM mianserin. In displacement studies, cell homogenated were incubated either with 1 nM [^3H]-mepyramine, 15 nM [^3H]-thiotidine, 0.5 nM [^3H]-R-α-Methylhistamine, or 15 nM [^3H]-pyramilamine and increasing concentrations of competing ligands. The incubations were stopped by rapid dilution with 3 ml of ice-cold 50 mM Na2/potassium phosphate buffer (pH 7.4). The bound radioactivity was seperated by filatration through Whatman GF/C filters that had been treated with 0.3 % polyethyleneimine. Filters were washed twice in 3 ml of buffer and radioactivity retained on the filters was measured by liquid scinitllation counting. […]

human 5-HT2B receptor [3] = biological target: T2, human 5-HT2B receptor (Homo sapiens, UniProt P41595); assay: 5-HT2A, 5-HT2B, 5-HT2C receptor binding methods (counter screen for selectivity); set-up: expressed in transfected cells; host or cells: HEK293 cells; conditions: HEK293 cells, [3H]-5HT approximately 0.4 nM, 120 min at 4°C; result in words only
Procedure: 5-HT2A receptors were labelled with [^3H]ketanserin in human cortex, in HEK293 cells expressing a cloned human 5-HT2A receptor and in HEK293 cells expressing the rat 5-HT2A receptor. For competition binding studies the ligand concentration was approximately 0.1 nM. For saturation binding studies concentrations of radioligand ranged from 0.01 nM to 2.0 nM. Assays were conducted in 0.5 ml of assay buffer (50 mM Tris-HCl, 4 mM calcium chloride, 0.1 % by weight ascorbic acid) (pH 7.4 at 4°C). Non-specifc binding was defined with […] unlabelled ketanserin. After a 60 min incubation at 32°C, membranes were harvested onto filters treated with 0.1 % by weight of polyethylenimine and the bound radioactivity was determined.
Human 5-HT2B receptors were labelled in HEK293 cells as described above. except that the radioligand was [^3H]-5HT and that the assay buffer contained pargyline in a concentration of 10 mM and 0.1 % by weight of ascorbic acid. […]
Competition radioligand binding data was analyzed using a four parameter logistic equation and iterative curve-fitting techniques to obtain estimates of the IC50 and Hill slope. Kd values, determined from saturation binding studies were then used to calculate inhibition dissociation constants (Ki).

5-HT2B receptor = biological target: T3, 5-HT2B receptor (Rattus norvegicus, UniProt P30994); assay: 5-HT2B receptor tissue based functional assay in rat stomach fundus longitudinal muscle; format: cell-based; conditions: dextral shift of agonist concentration-response curve, result in words only
T3 construct: Strips of longitudinal muscle were obtained from the stomach fundus of male Sprague Dawley rats; from tissue; host or cells: rat stomach fundus longitudinal muscle strips (male Sprague Dawley)
Procedure: The following describes an in vitro functional assay characterizing 5-HT receptors (the putative 5-HT2B) in rat stomach fundus longitudinal muscle (Baxter et al., Brit. J. Pharmacol. 1994, 112, 323-331).
Strips of longitudinal muscle were obtained from the stomach fundus of male Sprague Dawley rats. The mucosa was removed and the strips were suspended with a resting tension of 1 g in oxygenated (95% O2 /5% CO2) Tyrode solution at 37°C. The composition of the Tyrode solution was as follows (mM): NaCl 136.9; KCl 2.7; NaH2PO4 0.4; MgCl2 1.0; glucose 5.6; NaHCO3 11.9; CaCl2 1.8. […]
Effects of drugs were monitored by tension transducers and recorded on polygraph recorders. Tissue response was measured as changes in isometric tension (g). The mean potency (EC50) and maximum response were evaluated by standard iterative curve fitting procedures.
Effects of antagonists were determined by measuring dextral shifts to the agonist concentration-response curve after equilibration of the antagonists for at least 1 h. Concentration ratios were measured at half maximal response levels and single concentration antagonist affinities were determined by the equation: KB =(antagonist concentration)/(concentration ratio) [formula]

human 5-HT2B receptor [4] = biological target: T2, human 5-HT2B receptor; assay: Cloned human 5-HT2B receptor binding assay ([3H]-5HT); set-up: expressed in transfected cells; host or cells: HEK 293 cells, transiently transfected; membrane preparation; conditions: HEK 293 cells transiently transfected with human 5-HT2B receptor, [3H]5-HT 4 to 5 nM, 37°C 30 min; result in words only
Procedure: The following describes an in vitro binding assay utilizing cloned 5-HT2B receptors radiolabelled with [^3H]-5HT.
HEK 293 cells transiently transfected with an expression plasmid pXMD1-hu2B encoding the human 5-HT2B receptor (see Schmuck et al., FEBS Lett., 1994, 342, 85-90) were used as described previously (Schmuck et al., Eur. J. Pharmacol., 1996, 8, 959-967). Two days after transfection cells were harvested, pelleted at 500g for 5 min at 4°C, gently resuspended in ice-cold buffer1 (50 mM TRIS pH 7.7, 4 mM CaCl2) and homogenized using a Polytron PT 1200 tissue homogenizer (position 6 for 30 s). Cells were pelleted at 50,000g. 4°C for 10 min, washed with buffer1 and pelleted again. The final pellet was resuspended in incubation buffer (50 mM TRIS pH 7.7, 4 mM CaCl2, 10 µM pargyline and 0.1 % by weight ascorbic acid). The binding assay consisted of 300 µl of membrane suspension (protein concentration = 0.3 to 0.5 mg/ml), 150 µl of competing drug and 50 µl of [^3H]5-HT at a final concentration of 4 to 5 nM. The mixture was incubated at 37°C for 30 min and the assay terminated by rapid filtration and two washing steps with 5 ml of cold 20 mM Tris-HCl pH = 7.5, and 154 mM NaCl over Whatman GFB filters. Filters were counted by liquid scintillation. Non-specific binding was determined in the presence of an excess of 5-HT (100 µM). […] Results are expressed as pKi values. […]

T1 sequence (P35367 whole entry): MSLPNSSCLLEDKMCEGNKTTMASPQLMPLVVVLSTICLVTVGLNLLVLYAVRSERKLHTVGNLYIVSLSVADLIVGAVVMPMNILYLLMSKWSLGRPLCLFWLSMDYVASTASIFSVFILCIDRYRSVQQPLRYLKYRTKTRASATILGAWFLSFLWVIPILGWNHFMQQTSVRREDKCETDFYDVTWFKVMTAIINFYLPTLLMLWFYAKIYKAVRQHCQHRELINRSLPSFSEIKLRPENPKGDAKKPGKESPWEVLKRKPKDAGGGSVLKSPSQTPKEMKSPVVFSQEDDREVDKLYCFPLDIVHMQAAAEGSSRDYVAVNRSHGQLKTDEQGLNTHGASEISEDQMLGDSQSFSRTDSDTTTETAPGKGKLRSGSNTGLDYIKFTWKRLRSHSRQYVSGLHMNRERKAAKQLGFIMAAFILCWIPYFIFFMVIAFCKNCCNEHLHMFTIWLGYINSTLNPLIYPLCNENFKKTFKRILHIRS
T2 sequence (P41595 whole entry): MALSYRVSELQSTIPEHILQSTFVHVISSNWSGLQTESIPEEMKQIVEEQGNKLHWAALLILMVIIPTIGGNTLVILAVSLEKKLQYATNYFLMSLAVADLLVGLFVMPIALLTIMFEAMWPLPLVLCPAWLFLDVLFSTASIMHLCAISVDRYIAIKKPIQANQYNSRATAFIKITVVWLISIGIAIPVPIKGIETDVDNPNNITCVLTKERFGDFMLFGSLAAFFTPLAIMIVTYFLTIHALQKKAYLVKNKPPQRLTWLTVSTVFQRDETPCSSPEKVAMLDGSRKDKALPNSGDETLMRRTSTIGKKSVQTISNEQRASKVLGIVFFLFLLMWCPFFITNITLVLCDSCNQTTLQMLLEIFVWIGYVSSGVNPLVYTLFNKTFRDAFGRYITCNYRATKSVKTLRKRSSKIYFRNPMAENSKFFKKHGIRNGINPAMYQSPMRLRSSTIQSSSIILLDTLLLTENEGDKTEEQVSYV
T3 sequence (P30994 whole entry): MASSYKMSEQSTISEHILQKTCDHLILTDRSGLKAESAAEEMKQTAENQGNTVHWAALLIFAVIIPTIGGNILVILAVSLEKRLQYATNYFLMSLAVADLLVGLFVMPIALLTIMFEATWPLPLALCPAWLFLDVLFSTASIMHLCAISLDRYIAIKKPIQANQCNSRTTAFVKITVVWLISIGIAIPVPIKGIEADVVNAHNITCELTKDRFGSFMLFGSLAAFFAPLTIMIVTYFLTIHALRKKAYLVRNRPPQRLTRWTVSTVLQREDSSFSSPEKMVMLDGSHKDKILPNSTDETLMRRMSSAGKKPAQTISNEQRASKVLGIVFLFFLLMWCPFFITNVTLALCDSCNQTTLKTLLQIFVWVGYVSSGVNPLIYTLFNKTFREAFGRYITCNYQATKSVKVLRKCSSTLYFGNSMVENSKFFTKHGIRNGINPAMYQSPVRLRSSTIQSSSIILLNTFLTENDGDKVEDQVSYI

CCOc1ccc2c(c1)Sc1ccccc1C2=C1CCN(C)CC1 [1-methyl-4-(3-ethoxy-9H-thioxanthene-9-ylidene)-piperidine]
antagonist at the human H1 receptor (human H1 receptor [1]): found to be an antagonist at the human H1 receptor
affinity for the human H1 receptor (human H1 receptor [2]): found to have affinity for the human H1 receptor
affinity for the 5-HT2B receptor (human 5-HT2B receptor [3]): found to have affinity for the 5-HT2B receptor
antagonist at the 5-HT2B receptor (5-HT2B receptor): found to be an antagonist at the 5-HT2B receptor
affinity for the 5-HT2B receptor (human 5-HT2B receptor [4]): found to have affinity for the 5-HT2B receptor
